Measurements taken from the supplement of paper PMC10307832.

Experiments:
Assay in all cases: relative viability (nuclei count vs DMSO), 5 days (fraction); higher = more cells survive
SGI-1776 + Pemetrexed = compound: CN1CCC(CNc2ccc3ncc(-c4cccc(OC(F)(F)F)c4)n3n2)CC1 [SGI-1776] + Nc1nc2[nH]cc(CCc3ccc(C(=O)N[C@@H](CCC(=O)O)C(=O)O)cc3)c2c(=O)[nH]1 [Pemetrexed] (partner 0.2 µM)
Summary of the method: (§1)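 Cells from lung cancer lines were seeded into 1536-well plates and, one day later, dosed by pin tool. Treatments were either a single drug or a fixed dose of an anchor drug with five library-drug doses (not always all listed) in √10 steps. After 5 days, nuclei were stained in a one-step fixation (final 0.05% Triton X-100, 1% formaldehyde, 1 ug/ml Hoechst) and counted on 4× images, and relative viability is the treated-to-vehicle nuclei ratio, as the median of duplicate plates.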

SGI-1776 + Lapatinib = compound: CN1CCC(CNc2ccc3ncc(-c4cccc(OC(F)(F)F)c4)n3n2)CC1 [SGI-1776] + CS(=O)(=O)CCNCc1ccc(-c2ccc3ncnc(Nc4ccc(OCc5cccc(F)c5)c(Cl)c4)c3c2)o1 [Lapatinib] (partner 2 µM)
Summary of the method: as §1

Entinostat + Crizotinib = compound: Nc1ccccc1NC(=O)c1ccc(CNC(=O)OCc2cccnc2)cc1 [Entinostat] + C[C@@H](Oc1cc(-c2cnn(C3CCNCC3)c2)cnc1N)c1c(Cl)ccc(F)c1Cl [Crizotinib] (partner 1 µM)
Summary of the method: as §1

SGI-1776 + OSI-027 = compound: CN1CCC(CNc2ccc3ncc(-c4cccc(OC(F)(F)F)c4)n3n2)CC1 [SGI-1776] + COc1cccc2cc(-c3nc([C@H]4CC[C@H](C(=O)O)CC4)n4ncnc(N)c34)[nH]c12 [OSI-027] (partner 0.5 µM)
Summary of the method: as §1

Cell Line: UMC-11
- relative viability (SGI-1776 + Pemetrexed; first compound 0.08 µM): 0.828
- relative viability (SGI-1776 + Pemetrexed; first compound 0.8 µM): 0.864
- relative viability (SGI-1776 + Pemetrexed; first compound 2.53 µM): 0.699
- relative viability (SGI-1776 + Pemetrexed; first compound 8 µM): 0.558
- relative viability (SGI-1776 + Lapatinib; first compound 0.08 µM): 0.907
- relative viability (SGI-1776 + Lapatinib; first compound 0.8 µM): 1.12
- relative viability (SGI-1776 + Lapatinib; first compound 2.53 µM): 1.11
- relative viability (SGI-1776 + Lapatinib; first compound 8 µM): 0.644
- relative viability (Entinostat + Crizotinib; first compound 0.02 µM): 0.623
- relative viability (Entinostat + Crizotinib; first compound 0.06325 µM): 0.646
- relative viability (Entinostat + Crizotinib; first compound 0.2 µM): 0.363
- relative viability (Entinostat + Crizotinib; first compound 0.6325 µM): 0.109
- relative viability (Entinostat + Crizotinib; first compound 2 µM): 0.0765
- relative viability (SGI-1776 + OSI-027; first compound 0.08 µM): 0.493
- relative viability (SGI-1776 + OSI-027; first compound 0.8 µM): 0.466
- relative viability (SGI-1776 + OSI-027; first compound 2.53 µM): 0.396
- relative viability (SGI-1776 + OSI-027; first compound 8 µM): 0.278
